The values that follow come from patent US4111955A, “N-Trihalomethanesulfenyl carbamoyloximino di-sulfur heterocyclic compounds” (priority 1976, dated 1978).

Molecules are shown by their SMILES. ≈ marks a conversion by molar mass, not a printed value.

Data set [1] in a line: Peroral toxicity to mammals (rat). Format: in vivo. The following applies: in vivo, po; rat, peroral, Table II; read-out: Rat P.O. LD50. The protocol: (§1) Certain of these compositions were also evaluated to determine their peroral toxicity to mammals. The animal selected for this experiment was the rat. The test results obtained are expressed in terms of the number of milligrams of composition per kilogram of weight of the animal required to achieve a mortality rate of 50 percent (LD50).

In a further data set the test system is rat. Kind of data set: Peroral toxicity to mammals (rat). It is filed as in vivo. The following applies: fraction of the toxicity of the methylcarbamoyl compound; rat P.O. LD50. The protocol: as §1
The subject of data set [2] is aphid, mite, Southern Armyworm, Bean Beetle and House fly. The data set can be described thus: Overall pesticidal activity / insect toxicity compared with methylcarbamoyl derivatives. It is filed as in vivo. The following applies: all cases except the bean-beetle; Table II. An excerpt: (§2) In these tests the pesticidal activity of the compounds against aphid, mite, Southern Armyworm, Bean Beetle and House fly was rated as follows:
In the above Table, A indicates excellent control, B indicates partial control and C indicates no control. For comparison purposes, there is provided immediately below the data presented for the trihalomethanesulfenyl derivative the activity measurements achieved from the corresponding methyl-carbamoyl derivative adjacent to the chemical designation --NHCH3.
(§3) The LD50 values shown in the above Table II were determined by testing the compositions over an appropriate concentration range obtained by serial dilution of the stock suspension with water. The percent kill was plotted on log-probit graph paper versus parts per million concentration, and the LD50 read from an eye-fitted line drawn through the resultant points.

Another data set concerns mites. The data set can be described thus: Systemic miticidal activity (soil drench of infested bean plants). The following applies: Table II. It is filed as in vivo, Tetranychus urticae Koch. The protocol: (§4) Adults and nymphal stages of the two-spotted mite (Tetranychus urticae Koch), reared on Tendergreen bean plants at 80±5 percent relative humidity, were the test organisms. Infested leaves from a stock culture were placed on the primary leaves of two bean plants 6 to 8 inches in height, growing in a 21/2 inch clay pot. 150-200 Mites, a sufficient number for testing, transferred from the excised leaves to the fresh plants in a period of 24 hours. Following the 24 hour transfer period, the excised leaves were removed from the infested plants. The test compounds were formulated by diluting the stock suspension with water to give a suspension containing 500 parts of test compound per million parts of final formulation. The potted plants (one pot per compound) were placed on a revolving turntable and sprayed with 100-110 milliliters of test compound formulation by use of a DeVilbiss spray gun set at 40 psig. air pressure. This application, which lasted 25 seconds, was sufficient to wet the plants to run-off. As a control, 100-110 milliliters of a water solution containing acetone and emulsifier in the same concentrations as the test compound formulation, but containing no test compound, were also sprayed on infested plants. The sprayed plants were held at 80±5 percent relative humidity for 6 days, after which a mortality count of motile forms was made. Microscopic examination for motile forms was made on the leaves of the test plants. Any individual which was capable of locomotion upon prodding was considered living.
as §3
Systemic treatments were made by drenching 20 milliliters of the test compound formulation into the soil around the roots of bean plants growing in 21/2 inch clay pots. […]

Data set [3] deals with house flies (Musca domestica, L.). Kind of data set: Fly Bait Test. It is filed as in vivo. The arrangement: key to pesticidal activity rating, Housefly: A: excellent control; B: partial control; C: no control. The protocol:
Four to 6 day old adult house flies (Musca domestica, L.), reared according to the specifications of the Chemical Specialities Manufacturing Association (Blue Book, McNair-Dorland Co., N.Y. 1954; pages 243-244, 261) under controlled conditions of 80°±5° F. and 50±5 percent relative humidity, were the test insects. The flies were immobilized by anesthetizing with carbon dioxide and twenty five immobilized individuals, males and females, were transferred to a cage consisting of a standard food strainer about 5 inches in diameter which was inverted over a wrapping-paper-covered surface. The test compounds were formulated by diluting the stock suspension with a 10 percent (by weight) sugar solution to give a suspension containing 500 parts of test compound per million parts of final formulation, by weight. Ten milliliters of the test formulation were added to a souffle cup containing a 1-inch square of an absorbent cotton pad. This bait cup was introduced and centered on the blotting paper under the food strainer prior to admitting the anesthetized flies. The caged flies were allowed to feed on the bait for 24 hours, at a temperature of 80°±5° F. and the relative humidity of 50±5 percent.
as §2, §3

In data set [4] the test system is two-spotted mite (Tetranychus urticae Koch). The data set can be described thus: Mite Foliage Spray Test. Format: in vivo. The arrangement: key to pesticidal activity rating, Mite: A: excellent control; B: partial control; C: no control. The protocol:
as §4, §2, §3

Data set [5] deals with Mexican bean beetle (Epilachna varivestis, Muls.). The data set can be described thus: Mexican Bean Beetle Leaf Spray Test. Format: in vivo. Also on record: key to pesticidal activity rating, Bean beetle: A: excellent control; B: partial control; C: no control. The protocol: Fourth instar larvae of the Mexican bean beetle (Epilachna varivestis, Muls.), reared on Tendergreen bean plants at a temperature of 80°±5° F. and 50±5 percent relative humidity, were the test insects.
The test compounds were formulated by diluting the stock suspension with water to give a suspension containing 500 parts of test compound per million parts of final formulation. Potted Tendergreen bean plants of standard height and age were placed on a revolving turntable and sprayed with 100-110 milliliters of test compound formulation by use of a DeVilbiss spray gun set at 10 psig air pressure. This application, which lasted 25 seconds, was sufficient to wet plants to run-off. As a control, 100-110 milliliters of a water-acetone-emulsifier solution containing no test compound were also sprayed on infested plants. When dry, the paired leaves were separated and each was placed in a 9 centimeter Petri dish lined with moistened filter paper. Five randomly selected larvae were introduced into each dish, and the dishes were closed. The closed dishes were labeled and held at a temperature of 80°±5° F. for 3 days. Although the larvae could easily consume the leaf within 24 to 48 hours, no more food was added. Larvae which were unable to move the length of the body, even upon stimulation, were considered dead.
as §2, §3

`CN(SC(Cl)(Cl)Cl)C(=O)ON=C1CSCCS1` [2-[(N-METHYL-N-TRICHLOROMETHANESULFENYL)-CARBAMOYLOXIMINO]-1,4-DITHIANE]: in data set [1], the LD50 (usually the dose expected to kill half of the subjects tested) turned out to be 149 mg/kg. Further, the “mammalian toxicity relative to the methylcarbamoyl compound” value in the data set with rat is 1/10. Also, in data set [2], the “insect toxicity relative to the methylcarbamoyl composition” value was “essentially equivalent”. The “systemic activity relative to the methylcarbamoyl composition” value in the data set on mites was “higher degree of systemic activity”. The LC50 turned out to be 3 µg/mL (≈ 8.43 µM) in the data set with mites (Tetranychus urticae, systemic, soil drench, value in parentheses, read-out: Insect Toxicity, LD50, Mite, systemic activity); 2 µg/mL (≈ 5.62 µM) in data set [3] (Musca domestica, 24 h, Table II, read-out: Insect Toxicity, LD50, House fly); 7 µg/mL (≈ 19.7 µM) in data set [4] (Tetranychus urticae, foliar, Table II, read-out: Insect Toxicity, LD50, Mite); 10 µg/mL (≈ 28.1 µM) in data set [5] (Epilachna varivestis, 72 h, leaf spray, Table II, read-out: Insect Toxicity, LD50, Mexican Bean beetle). In addition, the “pesticidal activity rating, Housefly” value in data set [3] (500 parts per million, 24 hours) was “A”. For the same compound, in data set [4] (500 parts per million, 6 days), the “pesticidal activity rating, Mite” value was “A”. Also, in data set [5] (from LD50 values of Table II), the “insect toxicity on bean-beetle relative to the methylcarbamoyl composition” value is given as “five-fold improvement”. Besides, the “pesticidal activity rating, Bean beetle” value in data set [5] (leaf spray, 500 parts per million, 3 days) is “A”.
